{"source": "the supplement of paper PMC10307832", "assay_in_all_cases": "relative viability (nuclei count vs DMSO), 5 days (fraction); higher = more cells survive", "key": {"[1]": {"compound": "C[C@H]([C@@H](C(=O)N)NC(=O)[C@@H]1CSSC[C@@H](C(=O)N[C@H](C(=O)N[C@@H](C(=O)N[C@H](C(=O)N1)CCCCN)CC2=CNC3=CC=CC=C32)CC4=CC=C(C=C4)O)NC(=O)[C@@H](CC5=CC=CC=C5)N)O [CAP-232]", "method_in_brief": "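Nuclei counted with MetaXpress define viability as the ratio of treated to vehicle wells, given as a median across plates. The lung cancer cell lines were in 1536-well plates, pinned with five √10-spaced library-drug doses and imaged at 4× after 5 days and Hoechst staining. Plates passed with control CV below 25% and at least one doubling.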"}, "[2]": {"compound": "C[C@H]([C@@H](C(=O)N)NC(=O)[C@@H]1CSSC[C@@H](C(=O)N[C@H](C(=O)N[C@@H](C(=O)N[C@H](C(=O)N1)CCCCN)CC2=CNC3=CC=CC=C32)CC4=CC=C(C=C4)O)NC(=O)[C@@H](CC5=CC=CC=C5)N)O [CAP-232] + CC(=O)Nc1cccc(-n2c(=O)n(C3CC3)c(=O)c3c(Nc4ccc(I)cc4F)n(C)c(=O)c(C)c32)c1 [Trametinib] (partner 0.02 µM)", "method_in_brief": "(§1)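 Relative viability was taken as the ratio of nuclei in treated wells to nuclei in vehicle wells. Lung cancer cell lines in 1536-well plates received compounds by pin tool one day after seeding, either one drug alone or a fixed anchor-drug dose plus five library-drug doses (not always all listed) in √10 steps. Nuclei were counted on 4× images after 5 days of treatment, and values are medians of duplicate plates.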"}, "[3]": {"compound": "C[C@H]([C@@H](C(=O)N)NC(=O)[C@@H]1CSSC[C@@H](C(=O)N[C@H](C(=O)N[C@@H](C(=O)N[C@H](C(=O)N1)CCCCN)CC2=CNC3=CC=CC=C32)CC4=CC=C(C=C4)O)NC(=O)[C@@H](CC5=CC=CC=C5)N)O [CAP-232] + CC(=O)c1c(C)c2cnc(Nc3ccc(N4CCNCC4)cn3)nc2n(C2CCCC2)c1=O [Palbociclib] (partner 0.5 µM)", "method_in_brief": "as §1"}, "[4]": {"compound": "C[C@H]([C@@H](C(=O)N)NC(=O)[C@@H]1CSSC[C@@H](C(=O)N[C@H](C(=O)N[C@@H](C(=O)N[C@H](C(=O)N1)CCCCN)CC2=CNC3=CC=CC=C32)CC4=CC=C(C=C4)O)NC(=O)[C@@H](CC5=CC=CC=C5)N)O [CAP-232] + COc1cccc2cc(-c3nc([C@H]4CC[C@H](C(=O)O)CC4)n4ncnc(N)c34)[nH]c12 [OSI-027] (partner 0.5 µM)", "method_in_brief": "as §1"}, "[5]": {"compound": "C[C@H]([C@@H](C(=O)N)NC(=O)[C@@H]1CSSC[C@@H](C(=O)N[C@H](C(=O)N[C@@H](C(=O)N[C@H](C(=O)N1)CCCCN)CC2=CNC3=CC=CC=C32)CC4=CC=C(C=C4)O)NC(=O)[C@@H](CC5=CC=CC=C5)N)O [CAP-232] + Cc1cc(Nc2cc(N3CCN(C)CC3)nc(Sc3ccc(NC(=O)C4CC4)cc3)n2)n[nH]1 [Tozasertib] (partner 0.1 µM)", "method_in_brief": "as §1"}, "[6]": {"compound": "C[C@H]([C@@H](C(=O)N)NC(=O)[C@@H]1CSSC[C@@H](C(=O)N[C@H](C(=O)N[C@@H](C(=O)N[C@H](C(=O)N1)CCCCN)CC2=CNC3=CC=CC=C32)CC4=CC=C(C=C4)O)NC(=O)[C@@H](CC5=CC=CC=C5)N)O [CAP-232] + NC(=O)Nc1cc(-c2cccc(F)c2)sc1C(=O)N[C@H]1CCCNC1 [AZD7762] (partner 0.2 µM)", "method_in_brief": "as §1"}, "[7]": {"compound": "C[C@H]([C@@H](C(=O)N)NC(=O)[C@@H]1CSSC[C@@H](C(=O)N[C@H](C(=O)N[C@@H](C(=O)N[C@H](C(=O)N1)CCCCN)CC2=CNC3=CC=CC=C32)CC4=CC=C(C=C4)O)NC(=O)[C@@H](CC5=CC=CC=C5)N)O [CAP-232] + Nc1nc2[nH]cc(CCc3ccc(C(=O)N[C@@H](CCC(=O)O)C(=O)O)cc3)c2c(=O)[nH]1 [Pemetrexed] (partner 0.2 µM)", "method_in_brief": "as §1"}, "[8]": {"compound": "C[C@H]([C@@H](C(=O)N)NC(=O)[C@@H]1CSSC[C@@H](C(=O)N[C@H](C(=O)N[C@@H](C(=O)N[C@H](C(=O)N1)CCCCN)CC2=CNC3=CC=CC=C32)CC4=CC=C(C=C4)O)NC(=O)[C@@H](CC5=CC=CC=C5)N)O [CAP-232] + Nc1ncn([C@H]2C[C@H](O)[C@@H](CO)O2)c(=O)n1 [Decitabine] (partner 2 µM)", "method_in_brief": "as §1"}, "[9]": {"compound": "C[C@H]([C@@H](C(=O)N)NC(=O)[C@@H]1CSSC[C@@H](C(=O)N[C@H](C(=O)N[C@@H](C(=O)N[C@H](C(=O)N1)CCCCN)CC2=CNC3=CC=CC=C32)CC4=CC=C(C=C4)O)NC(=O)[C@@H](CC5=CC=CC=C5)N)O [CAP-232] + O=C(CCCCCCC(=O)Nc1ccccc1)NO [Vorinostat] (partner 1 µM)", "method_in_brief": "as §1"}, "[10]": {"compound": "C[C@H]([C@@H](C(=O)N)NC(=O)[C@@H]1CSSC[C@@H](C(=O)N[C@H](C(=O)N[C@@H](C(=O)N[C@H](C(=O)N1)CCCCN)CC2=CNC3=CC=CC=C32)CC4=CC=C(C=C4)O)NC(=O)[C@@H](CC5=CC=CC=C5)N)O [CAP-232] + O=C(c1cc(Cc2n[nH]c(=O)c3ccccc23)ccc1F)N1CCN(C(=O)C2CC2)CC1 [Olaparib] (partner 8 µM)", "method_in_brief": "as §1"}}, "data": [{"cell line": "NCI-H1648", "values": [{"measurement": "relative viability", "setting": "[1]; 0.4 µM", "result": 0.984}, {"measurement": "relative viability", "setting": "[1]; 1.265 µM", "result": 0.761}, {"measurement": "relative viability", "setting": "[1]; 4 µM", "result": 0.914}, {"measurement": "relative viability", "setting": "[1]; 12.65 µM", "result": 0.885}, {"measurement": "relative viability", "setting": "[2]; first compound 0.4 µM", "result": 0.358}, {"measurement": "relative viability", "setting": "[2]; first compound 4 µM", "result": 0.314}, {"measurement": "relative viability", "setting": "[2]; first compound 12.65 µM", "result": 0.472}, {"measurement": "relative viability", "setting": "[3]; first compound 0.4 µM", "result": 0.27}, {"measurement": "relative viability", "setting": "[3]; first compound 4 µM", "result": 0.293}, {"measurement": "relative viability", "setting": "[3]; first compound 12.65 µM", "result": 0.252}, {"measurement": "relative viability", "setting": "[4]; first compound 0.4 µM", "result": 0.238}, {"measurement": "relative viability", "setting": "[4]; first compound 1.265 µM", "result": 0.241}, {"measurement": "relative viability", "setting": "[4]; first compound 4 µM", "result": 0.265}, {"measurement": "relative viability", "setting": "[4]; first compound 12.65 µM", "result": 0.216}, {"measurement": "relative viability", "setting": "[5]; first compound 0.4 µM", "result": 0.35}, {"measurement": "relative viability", "setting": "[5]; first compound 1.265 µM", "result": 0.594}, {"measurement": "relative viability", "setting": "[5]; first compound 4 µM", "result": 0.441}, {"measurement": "relative viability", "setting": "[5]; first compound 12.65 µM", "result": 0.4}, {"measurement": "relative viability", "setting": "[6]; first compound 0.4 µM", "result": 0.618}, {"measurement": "relative viability", "setting": "[6]; first compound 4 µM", "result": 0.77}, {"measurement": "relative viability", "setting": "[6]; first compound 12.65 µM", "result": 0.532}, {"measurement": "relative viability", "setting": "[7]; first compound 0.4 µM", "result": 1.05}, {"measurement": "relative viability", "setting": "[7]; first compound 4 µM", "result": 0.92}, {"measurement": "relative viability", "setting": "[7]; first compound 12.65 µM", "result": 0.776}, {"measurement": "relative viability", "setting": "[8]; first compound 0.4 µM", "result": 0.524}, {"measurement": "relative viability", "setting": "[8]; first compound 4 µM", "result": 0.565}, {"measurement": "relative viability", "setting": "[8]; first compound 12.65 µM", "result": 0.466}, {"measurement": "relative viability", "setting": "[9]; first compound 0.4 µM", "result": 0.292}, {"measurement": "relative viability", "setting": "[9]; first compound 4 µM", "result": 0.453}, {"measurement": "relative viability", "setting": "[9]; first compound 12.65 µM", "result": 0.411}, {"measurement": "relative viability", "setting": "[10]; first compound 0.4 µM", "result": 0.698}, {"measurement": "relative viability", "setting": "[10]; first compound 4 µM", "result": 0.664}, {"measurement": "relative viability", "setting": "[10]; first compound 12.65 µM", "result": 0.644}]}]}
